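Five compound concentrations were applied to cells in 96-well plates for 48 hours; endpoints were derived by simple linear interpolation of the resulting dose-response curve. Here, GI50 denotes the concentration required for 50% inhibition of growth.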 The source made the active and inactive calls. Cut-off read from the data, not from the text of the source: active = GI50 up to about 1.1 µM and inactive = higher.
Key:
Assay in all cases: NCI anticancer screen, dose series, 48 h
MCF7 = test system: MCF7
HCT-15 = test system: HCT-15
A549 = test system: A549
RPMI-8226 = test system: RPMI-8226
Malme-3M = test system: Malme-3M
DU-145 = test system: DU-145
NCI-H23 = test system: NCI-H23
HT-29 = test system: HT-29
SK-OV-3 = test system: SK-OV-3
SK-MEL-28 = test system: SK-MEL-28
NCI-H226 = test system: NCI-H226
OVCAR-8 = test system: OVCAR-8
NCI/ADR-RES = test system: NCI/ADR-RES
RXF 393 = test system: RXF 393
SF-268 = test system: SF-268
UACC-257 = test system: UACC-257
HCT-116 = test system: HCT-116
786-0 = test system: 786-0
SR = test system: SR
BT-549 = test system: BT-549

Structure (SMILES) | GI50 (MCF7) | GI50 (HCT-15) [µM] | GI50 (A549) | GI50 (RPMI-8226) | GI50 (Malme-3M) | GI50 (DU-145) | GI50 (NCI-H23) | GI50 (HT-29) | GI50 (SK-OV-3) | GI50 (SK-MEL-28) | GI50 (NCI-H226) | GI50 (OVCAR-8) | GI50 (NCI/ADR-RES) | GI50 (RXF 393) | GI50 (SF-268) | GI50 (UACC-257) | GI50 (HCT-116) | GI50 (786-0) | GI50 (SR) | GI50 (BT-549)
Cc1ccc2c(/C=C/c3ccc(N(C)C)cc3)ccnc2c1C | 15.7 µM (inactive) | 12.8 | 49.8 µM (inactive) | 11.1 µM (inactive) | 12.6 µM (inactive) | 48 µM (inactive) | 55.3 µM (inactive) | 16.6 µM (inactive) | 31.1 µM (inactive) | 17.1 µM (inactive) | 30.5 µM (inactive) | 24.7 µM (inactive) | 33.2 µM (inactive) | 18 µM (inactive) | 30.1 µM (inactive) | 26.8 µM (inactive) | 25.2 µM (inactive) | 27.4 µM (inactive) |  | 
NC(=O)c1c([N+](=O)[O-])cc(C(F)(F)F)cc1[N+](=O)[O-] |  |  | 99.5 µM (inactive) | > 100 µM (inactive) | 24.4 µM (inactive) |  | 29.8 µM (inactive) | 41.7 µM (inactive) | > 100 µM (inactive) | > 100 µM (inactive) | > 100 µM (inactive) | > 100 µM (inactive) |  | > 100 µM (inactive) | > 100 µM (inactive) | 27 µM (inactive) | 39 µM (inactive) | > 100 µM (inactive) | > 100 µM (inactive) | 
N#CCCN(CCN(C(=O)Nc1ccccc1)c1ccccc1)C(=O)Nc1ccccc1 | > 71.1 µM (inactive) | > 81.5 | 58.2 µM (inactive) | 17.6 µM (inactive) | > 100 µM (inactive) |  | > 60.1 µM (inactive) | > 100 µM (inactive) | > 100 µM (inactive) | > 91.6 µM (inactive) | 79.4 µM (inactive) | 64.3 µM (inactive) | 28.6 µM (inactive) | > 45.3 µM (inactive) | > 100 µM (inactive) | > 100 µM (inactive) | 54.6 µM (inactive) | > 100 µM (inactive) | 42 µM (inactive) | 42.6 µM (inactive)
CC1C[C@]2(C)C(=O)Nc3ccccc3[C@@H]2Nc2ccccc21 (stereo partly specified) | 21 µM (inactive) | 34.7 | 25.1 µM (inactive) | 23.5 µM (inactive) | 23.3 µM (inactive) | 27.7 µM (inactive) | 19.5 µM (inactive) | 14.7 µM (inactive) |  | 28.6 µM (inactive) | 26.1 µM (inactive) | 14.8 µM (inactive) | 19.8 µM (inactive) | 24.8 µM (inactive) | 23.7 µM (inactive) | 15.6 µM (inactive) | 16.1 µM (inactive) | 22 µM (inactive) | 16.2 µM (inactive) | 
Cc1ccc(N2C(=O)C3C=CC(n4[nH]c(=O)n(Cc5ccccc5)c4=O)CC3C2=O)cc1 (stereo unspecified) |  | > 100 | > 100 µM (inactive) | > 100 µM (inactive) | > 100 µM (inactive) |  | > 100 µM (inactive) | > 100 µM (inactive) | > 100 µM (inactive) | > 100 µM (inactive) | > 100 µM (inactive) | > 100 µM (inactive) |  | > 100 µM (inactive) | > 100 µM (inactive) | > 100 µM (inactive) | > 100 µM (inactive) | > 100 µM (inactive) | > 100 µM (inactive) | 
COC(=O)[C@H](C)N(C)C(=O)[C@H](C)N1[C@@H](c2ccccc2)COC1(C)C | > 100 µM (inactive) | > 100 | > 100 µM (inactive) | > 100 µM (inactive) | > 100 µM (inactive) |  | > 100 µM (inactive) | > 100 µM (inactive) | > 100 µM (inactive) | > 100 µM (inactive) | > 100 µM (inactive) | > 100 µM (inactive) | > 100 µM (inactive) | > 100 µM (inactive) | > 100 µM (inactive) | > 100 µM (inactive) | > 100 µM (inactive) | > 100 µM (inactive) | > 100 µM (inactive) | > 100 µM (inactive)
Oc1nc(-c2ccccc2)cc(-c2ccccc2O)n1 |  | 83.2 | 83.4 µM (inactive) | 83.9 µM (inactive) | > 100 µM (inactive) |  | > 100 µM (inactive) | 56.6 µM (inactive) | > 100 µM (inactive) | > 100 µM (inactive) | > 100 µM (inactive) | > 100 µM (inactive) |  | 86.5 µM (inactive) | > 100 µM (inactive) | > 100 µM (inactive) | 83.4 µM (inactive) | > 100 µM (inactive) | > 100 µM (inactive) | 
O=c1[nH]c2ccccc2cc1C(Cl)=C(Cl)Cl |  |  | > 100 µM (inactive) | > 100 µM (inactive) | > 100 µM (inactive) |  | > 100 µM (inactive) | > 100 µM (inactive) | > 100 µM (inactive) | > 100 µM (inactive) | > 100 µM (inactive) | > 100 µM (inactive) |  | > 100 µM (inactive) | > 100 µM (inactive) | > 100 µM (inactive) | > 100 µM (inactive) | > 100 µM (inactive) | > 100 µM (inactive) | 
COC(=O)CCN(CCC(=O)OC)C1CC1 | > 100 µM (inactive) | > 100 | > 100 µM (inactive) | > 100 µM (inactive) | > 100 µM (inactive) | > 100 µM (inactive) | > 100 µM (inactive) | > 100 µM (inactive) | > 100 µM (inactive) | > 100 µM (inactive) | > 100 µM (inactive) | > 100 µM (inactive) | > 100 µM (inactive) | > 100 µM (inactive) | > 100 µM (inactive) | > 100 µM (inactive) | > 100 µM (inactive) | > 100 µM (inactive) | > 100 µM (inactive) | 
O=C(CCCNC(=O)OCc1ccccc1)OCc1ccc2c(c1)C(=O)c1ccccc1C2=O |  | > 100 | > 100 µM (inactive) | > 100 µM (inactive) | > 100 µM (inactive) |  | 45.6 µM (inactive) | > 100 µM (inactive) | 29.6 µM (inactive) | > 100 µM (inactive) | 5.46 µM (inactive) | 47.9 µM (inactive) |  | 22.2 µM (inactive) | 53.8 µM (inactive) | > 100 µM (inactive) | > 100 µM (inactive) | 25.3 µM (inactive) | > 100 µM (inactive) | 
Clc1ccc2c(Cl)ncnc2c1I |  | > 100 | > 100 µM (inactive) | 33.7 µM (inactive) | > 100 µM (inactive) |  | > 100 µM (inactive) | > 100 µM (inactive) | > 100 µM (inactive) | > 100 µM (inactive) | 32.4 µM (inactive) | > 100 µM (inactive) |  | 42 µM (inactive) | > 100 µM (inactive) | > 100 µM (inactive) | 76.4 µM (inactive) | > 100 µM (inactive) | 31.2 µM (inactive) | 
Cc1ccc(C)c(NC(=O)C(=O)Nn2c(S)nc3ccccc3c2=O)c1 |  | > 100 | > 100 µM (inactive) | > 100 µM (inactive) | > 100 µM (inactive) |  | > 100 µM (inactive) | > 100 µM (inactive) | > 100 µM (inactive) | > 100 µM (inactive) | > 100 µM (inactive) | > 100 µM (inactive) |  | > 100 µM (inactive) | > 100 µM (inactive) | > 100 µM (inactive) | > 100 µM (inactive) | > 100 µM (inactive) | > 100 µM (inactive) | 
N/C(=N\O)N/N=C/c1ccc(O)c(O)c1 |  | > 100 | > 100 µM (inactive) | > 100 µM (inactive) | > 100 µM (inactive) |  | > 100 µM (inactive) | > 100 µM (inactive) | > 100 µM (inactive) | > 100 µM (inactive) | > 100 µM (inactive) | > 100 µM (inactive) |  | > 100 µM (inactive) | > 100 µM (inactive) | > 100 µM (inactive) | > 100 µM (inactive) | > 100 µM (inactive) | > 100 µM (inactive) | 
O=C(CC(C(=O)c1cccs1)c1ccsc1)c1ccco1 (stereo unspecified) | 21.1 µM (inactive) | 21.5 | 21.6 µM (inactive) | 73.5 µM (inactive) |  | 31 µM (inactive) | 19.5 µM (inactive) | 4.8 µM (inactive) | 41.3 µM (inactive) | 17.1 µM (inactive) | 27 µM (inactive) | 32.3 µM (inactive) | 20.4 µM (inactive) | 20.5 µM (inactive) | 27.6 µM (inactive) | 37.9 µM (inactive) | 21.2 µM (inactive) | 33.7 µM (inactive) | 41.8 µM (inactive) | 
CCCCCCCCCCCCCCCC/C(C(=O)OC)=C(/O)C(=O)OCC |  | > 100 | > 100 µM (inactive) | > 100 µM (inactive) | > 100 µM (inactive) |  | > 100 µM (inactive) | > 100 µM (inactive) | > 100 µM (inactive) | > 100 µM (inactive) | > 100 µM (inactive) | > 100 µM (inactive) |  | > 100 µM (inactive) | > 100 µM (inactive) | > 100 µM (inactive) | > 100 µM (inactive) | > 100 µM (inactive) | 95.3 µM (inactive) | 
Cn1c2c3ccccc3nc-2c(O)c2ccccc21 [HYDROXYCRYPTOLEPINE] | > 100 µM (inactive) | 53.3 | > 100 µM (inactive) | 45.7 µM (inactive) | > 100 µM (inactive) | 3.46 µM (inactive) | > 100 µM (inactive) | > 100 µM (inactive) | > 100 µM (inactive) | 6.52 µM (inactive) | > 100 µM (inactive) | > 100 µM (inactive) | > 100 µM (inactive) | > 100 µM (inactive) | 0.735 µM (active) | > 100 µM (inactive) | 49.4 µM (inactive) | > 100 µM (inactive) |  | 

Reference: ChEMBL document CHEMBL1201862, “PubChem BioAssay data set” (2004)
